Legend:
Settings in all cases: stereoisomer not certain
[1] = RP, Thermo Scientific Hypercarb, 150 × 2.1 mm, 5 µm, 0.1 mL/min, estimated dead time 3.3 min; A: water + 0.1% formic acid, pH 3; B: methanol + 0.1% formic acid, pH 3; gradient (min/%B) 0/5 5/5 20/100 35/100 35.1/5 45/5
[2] = RP, Waters CORTECS T3, 100 × 2.1 mm, 2.7 µm, 0.2 mL/min, estimated dead time 1.1 min; A: water + 0.045% formic acid + 0.11% ammonium hydroxide, pH 7; B: methanol; gradient (min/%B) 0/5 5/5 25/95 25.1/100 35/100 35.1/5 45/5
[3] = RP, Waters ACQUITY UPLC BEH C18, 100 × 2.1 mm, 1.7 µm, 0.1 mL/min, estimated dead time 2.2 min; A: water + 0.045% formic acid + 0.11% ammonium hydroxide, pH 7; B: methanol; gradient (min/%B) 0/5 5/5 25/95 25.1/100 35/100 35.1/5 45/5
[4] = RP, Waters ACQUITY UPLC BEH C18, 100 × 2.1 mm, 1.7 µm, 0.2 mL/min, estimated dead time 1.1 min; A: water + 0.025% formic acid + 20 mM ammonium acetate + 0.055% ammonium hydroxide, pH 7; B: methanol; gradient (min/%B) 0/5 5/5 25/100 30/100 30.1/5 35/5
[5] = RP, Waters CORTECS T3, 100 × 2.1 mm, 2.7 µm, 0.2 mL/min, estimated dead time 1.1 min; A: water + 0.1% formic acid, pH 3; B: methanol + 0.1% formic acid, pH 3; gradient (min/%B) 0/5 5/5 25/95 25.1/100 35/100 35.1/5 45/5
[6] = RP, Waters CORTECS T3, 100 × 2.1 mm, 2.7 µm, 0.25 mL/min, estimated dead time 0.88 min; A: water + 0.1% formic acid, pH 3; B: methanol + 0.1% formic acid, pH 3; gradient (min/%B) 0/0 1/0 6/5 30/100 35/100 35.1/0 40/0
[7] = HILIC, Merck SeQuant ZIC-HILIC, 150 × 2.1 mm, 5 µm, 0.75 mL/min, estimated dead time 0.44 min; A: water + 0.1% acetic acid + 10 mM ammonium acetate, pH 4; B: 5% water + 95% acetonitrile + 0.1% acetic acid + 10 mM ammonium acetate, pH 4; gradient (min/%B) 0/95 5/95 20/57 25/57 30/95 40/95
[8] = RP, Waters CORTECS T3, 100 × 2.1 mm, 2.7 µm, 0.15 mL/min, estimated dead time 1.5 min; A: water + 0.1% formic acid, pH 3; B: methanol + 0.1% formic acid, pH 3; gradient (min/%B) 0/0 1/0 6/5 30/100 35/100 35.1/0 40/0
[9] = RP, Waters ACQUITY UPLC BEH C18, 100 × 2.1 mm, 1.7 µm, 0.1 mL/min, estimated dead time 2.2 min; A: water + 0.1% formic acid, pH 3; B: methanol + 0.1% formic acid, pH 3; gradient (min/%B) 0/5 5/5 25/100 30/100 30.1/5 35/5
[10] = RP, Waters CORTECS T3, 100 × 2.1 mm, 2.7 µm, 0.3 mL/min, estimated dead time 0.73 min; A: water + 0.1% formic acid, pH 3; B: methanol + 0.1% formic acid, pH 3; gradient (min/%B) 0/0 5/0 25/100 30/100 30.1/0 35/0
[11] = RP, Waters CORTECS T3, 100 × 2.1 mm, 2.7 µm, 0.2 mL/min, estimated dead time 1.1 min; A: water + 0.1% formic acid, pH 3; B: methanol + 0.1% formic acid, pH 3; gradient (min/%B) 0/0 1/0 6/5 30/100 35/100 35.1/0 40/0
[12] = RP, Waters CORTECS T3, 100 × 2.1 mm, 2.7 µm, 0.3 mL/min, estimated dead time 0.73 min; A: water + 0.1% formic acid, pH 3; B: methanol + 0.1% formic acid, pH 3; gradient (min/%B) 0/5 5/5 25/95 25.1/100 35/100 35.1/5 45/5
[13] = RP, Waters CORTECS T3, 100 × 2.1 mm, 2.7 µm, 0.3 mL/min, estimated dead time 0.73 min; A: water + 0.1% formic acid, pH 3; B: methanol + 0.1% formic acid, pH 3; gradient (min/%B) 0/0 1/0 6/5 30/100 35/100 35.1/0 40/0

## N[C@@H](Cc1ccc(O)cc1)C(=O)O [L-TYROSINE]
[1]
  LC retention time: 24.8 min
[2]
  LC retention time: 5.83 min
[3]
  LC retention time: 10.2 min

## CC(C)=CCCC(C)C1CCC2(C)C3=C(CCC12C)C1(C)CCC(O)C(C)(C)C1CC3 (configuration not stated) [LANOSTEROL]
[4]
  LC retention time: 26.4 min

## NC(=O)CCCCC1CCSS1 (configuration not stated) [LIPOAMIDE]
[2]
  LC retention time: 16 min
[3]
  LC retention time: 20 min

## NC(CCCC(N)C(=O)O)C(=O)O (configuration not stated) [LL-2,6-DIAMINOHEPTANEDIOATE]
[1]
  LC retention time: 4.49 min
[5]
  LC retention time: 2.41 min

## CC(C)=CCCC(C)=CCCC(C)=CCCC(C)=CCC1=C(C)C(=O)c2ccccc2C1=O [MENAQUINONE]
[3]
  LC retention time: 34.6 min

## CN=C(N)N [METHYLGUANIDINE]
[6]
  LC retention time: 1.06 min
[1]
  LC retention time: 4.05 min
[4]
  LC retention time: 1.39 min

## Cn1cncc1CC(N)C(=O)O [N(PAI)-METHYL-L-HISTIDINE]
[1]
  LC retention time: 4.77 min
[4]
  LC retention time: 1.88 min

## CC(=O)NC1C(O)CC(O)(C(=O)O)OC1C(O)C(O)CO (configuration not stated) [N-ACETYLNEURAMINATE]
[7]
  LC retention time: 12.9 min

## CC(=O)NCCCCN [N-ACETYLPUTRESCINE]
[8]
  LC retention time: 1.8 min
[9]
  LC retention time: 2.71 min
[4]
  LC retention time: 1.39 min

## NC(=O)c1ccc[n+](C2OC(COP(=O)([O-])O)C(O)C2O)c1 (configuration not stated) [NICOTINAMIDE MONONUCLEOTIDE]
[1]
  LC retention time: 26.7 min
[9]
  LC retention time: 2.69 min

## N[C@@H](CCOC(=O)CCC(=O)O)C(=O)O [O-SUCCINYL-L-HOMOSERINE]
[10]
  LC retention time: 0.93 min
[11]
  LC retention time: 1.34 min
[8]
  LC retention time: 1.83 min
[6]
  LC retention time: 1.09 min
[1]
  LC retention time: 16.2 min
[9]
  LC retention time: 2.74 min
[12]
  LC retention time: 0.9 min
[13]
  LC retention time: 0.92 min

## CCCCCCCCCCCCCCCC(=O)O [PALMITATE]
[3]
  LC retention time: 36.8 min
[5]
  LC retention time: 33.8 min

## CCCCCCC=CCCCCCCCC(=O)O [PALMITOLEIC ACID]
[3]
  LC retention time: 29.4 min

## NCCc1ccccc1 [PHENETHYLAMINE]
[3]
  LC retention time: 20.4 min

## c1ccc2ncccc2c1 [QUINOLINE]
[1]
  LC retention time: 4.84 min
[2]
  LC retention time: 11.7 min
[3]
  LC retention time: 16.1 min

## N[C@@H](CSCC(=O)O)C(=O)O [S-CARBOXYMETHYL-L-CYSTEINE]
[1]
  LC retention time: 14.8 min

## C[Se]CCC(N)C(=O)O (configuration not stated) [SELENOMETHIONINE]
[9]
  LC retention time: 4.52 min

## NCCCCNCCCN [SPERMIDINE]
[1]
  LC retention time: 41 min

## CCCCCCCCC=CCCCCCCCC(=O)NC(COP(=O)([O-])OCC[N+](C)(C)C)C(O)C=CCCCCCCCCCCCCC (configuration not stated) [SPHINGOMYELIN (d36:2)]
[2]
  LC retention time: 28.7 min
[3]
  LC retention time: 37.5 min

## Cc1ncc(C[n+]2csc(CCOP(=O)(O)O)c2C)c(N)n1 [THIAMINE MONOPHOSPHATE]
[10]
  LC retention time: 0.89 min
[8]
  LC retention time: 1.78 min
[1]
  LC retention time: 18 min
[3]
  LC retention time: 3.87 min
[4]
  LC retention time: 1.42 min

## Cc1ncc(C[n+]2csc(CCO)c2C)c(N)n1 [THIAMINE]
[10]
  LC retention time: 0.89 min
[8]
  LC retention time: 1.78 min
[1]
  LC retention time: 19.1 min
[4]
  LC retention time: 3.78 min

## C=C1CCC(O)CC1=CC=C1CCCC2(C)C1CCC2C(C)C=CC(C)C(C)C (configuration not stated) [VITAMIN D2]
[3]
  LC retention time: 33.6 min

## O=c1[nH]c(=O)c2ncn(C3OC(CO)C(O)C3O)c2[nH]1 (configuration not stated) [XANTHOSINE]
[7]
  LC retention time: 11.6 min
[5]
  LC retention time: 11.9 min
